Reference: publication PMC5339268, “Ganoderic Acid A Metabolites and Their Metabolic Kinetics” (Frontiers in Pharmacology, 2017)
Like-named read-outs stand apart in the source and are kept apart here.

Columns and labels:
[1] = system: rat liver microsomes (RLMs); assay: In vitro metabolite identification, GAA incubated with RLMs; conditions: for Detected resource 4, RLMs: 100 μM GAA, 1.0 mg protein/ml RLMs, NADPH and UDPGA, 37°C, 1 h
Protocol: (§2) For in vitro metabolites identification, the enzyme incubation was performed in a medium containing 1.0 mg protein /ml RLMs or HLMs, 100 μM of GAA, 3.3 mM of MgCl2, 3.0 mM of NADPH, 3.0 mM of UDPGA and 100 mM of sodium phosphate buffer (pH 7.4). The total volume was 500 μl. The metabolism reaction was initiated by adding NADPH and UDPGA after 10 min preincubation at 37°C. The reaction was maintained at 37°C for 1 h and terminated by adding with 500 μl of ice-cold acetonitrile. The mixture was centrifuged at 20,000 g for 15 min, and 10 μl of the supernatant was directly injected for HPLC-DAD-MS/MS assay. Control samples were prepared as described above by using inactivated enzymes in the incubation system. Each of the incubations was performed in duplicate.
(§3) The identification of metabolites were conducted by a HPLC-DAD-MS/MS system equipped with an Agilent 1,260 HPLC system (Agilent Technologies, Santa Clara, CA, USA), 1,260 diode array detector (DAD) and 4,500 Q-Trap mass spectrometer with electrospray ionization source (AB SCIEX, Framingham, MA, USA). Chromatographic separation was performed on a C18 column (100 × 4.6 mm, 2.4 μm, BDS hypersil, Thermo, PA) maintained at 40°C. The mobile phase consisted of acetonitrile (A) and 0.1% formic acid aqueous solution (B) with following gradient elution at a flow rate of 0.40 ml/min: 0–10 min, 20–35% A; 10–20 min, 35% A; 20–25 min, 35–65% A; 25–30 min, 65% A; 30–35 min, 65–20% A; and 35–45 min, 20% A. The DAD spectral data was collected from 190 to 400 nm. The injection volume of all the tested samples was 10 μl. Mass data were acquired in negative mode under the following conditions, ion spray voltage −4,500 V, ion source temperature 450°C, curtain gas 10 psi, nebulizer gas 60 psi and auxiliary gas 60 psi. Data were collected using Analyst 1.6.2 (Applied Biosystems) in both first quadrupole (Q1) mass scan mode and multiple reaction monitoring (MRM) independent data acquisition (IDA) mode using enhanced product ion scans (EPI) and enhanced resolution (ER) in the ion trap mode.

[2] = GAA metabolite identification in rat bile, plasma and urine after intravenous administration (HPLC-DAD-MS/MS); conditions: for Detected resource 1, rat bile: rat bile 0–4 h after i.v. GAA 20 mg/kg; for Detected resource 2, rat plasma: rat plasma 5 and 30 min after i.v. GAA 20 mg/kg; for Detected resource 3, rat urine: rat urine 0–4 h after i.v. GAA 20 mg/kg
Protocol: Male Sprague-Dawley rats (200 ± 20 g) were supplied by Beijing Vital Laboratory Animal Technology (Beijing, China). The animal experiment was approved by the Animal Ethics Committee at the Institute of Medicinal Plant Development, Chinese Academy of Medical Sciences. […] On the day before the experiment, the rats were suffered with light surgeries. Under anesthesia by an intraperitoneal dose of 10% chloral hydrate at 3.50 ml/kg, a polyethylene catheter (0.50 mm ID, 1.00 mm OD, Portex Limited, Hythe, Kent, England) was cannulated into the right jugular vein for intravenous drug administration and blood collection, and another catheter (0.28 mm ID, 0.61 mm OD, Portex Limited, Hythe, Kent, England) was cannulated into the bile fistul for bile collection. After surgery, the rats were placed individually in metabolism cages and allowed to recover for at least 24 h. The rats were fasted over night with free access to water prior to drug administration.
GAA (25 mg) was dissolved in 500 μl of physiological saline containing 2% sodium carbonate and diluted with physiological saline to make the volume of 5 ml (Cheng C.-R. et al., [2013]). The solution was given to rats (n = 5) intravenously at 20 mg/kg through the jugular vein catheter. After dosing and blood sample collection, 0.2 ml of normal saline with 20 units of heparin was injected into the body through the catheter to flush the catheter and prevent blood coagulation.
Rats were held in metabolism cages, blood was collected into heparinized tubes from the jugular vein before (blank) and at 5 and 30 min post dosing, and then centrifuged at 1,500 g for 10 min for plasma separation. At the same time, bile and urine samples were collected before (blank) and over the period of 0–4 h post dosing. All of the collected blank plasma, blank bile, blank urine, dosing plasma, dosing bile or dosing urine from five rats were pooled together respectively and stored at −20°C until assay.
For plasma, an aliquot of 200 μl sample was mixed with 20 μl HCl solution (1 M), and then extracted with 1.5 ml of ethyl acetate by vortex-mixing for 10 min. The ethyl acetate layer was collected and concentrated to dryness by a vacuum concentrator. The residue was reconstituted in 100 μl 80% methanol and centrifuged at 20,000 g for 15 min. The supernatant was collected for HPLC-DAD-MS/MS assay. For bile, an aliquot of 150 μl sample was mixed with 150 μl 80% methanol and 10 μl 5% formic acid, and then centrifuged at 20,000 g for 15 min. The supernatant was collected for HPLC-DAD-MS/MS assay. For urine, an aliquot of 2 ml sample was loaded on a pretreated ODS-C18 cartridge (Agilent AccuBOND, 500 mg). After washing with 5 ml of water, the cartridge was eluted with 10 ml of methanol. The methanol eluate was collected and concentrated to dryness by a vacuum concentrator at 37°C. The residue was reconstituted in 200 μl 80% methanol and centrifuged at 20,000 g for 15 min, and the supernatant was collected for HPLC-DAD-MS/MS assay.
The identification of metabolites were conducted by a HPLC-DAD-MS/MS system equipped with an Agilent 1,260 HPLC system (Agilent Technologies, Santa Clara, CA, USA), 1,260 diode array detector (DAD) and 4,500 Q-Trap mass spectrometer with electrospray ionization source (AB SCIEX, Framingham, MA, USA). Chromatographic separation was performed on a C18 column (100 × 4.6 mm, 2.4 μm, BDS hypersil, Thermo, PA) maintained at 40°C. The mobile phase consisted of acetonitrile (A) and 0.1% formic acid aqueous solution (B) with following gradient elution at a flow rate of 0.40 ml/min: 0–10 min, 20–35% A; 10–20 min, 35% A; 20–25 min, 35–65% A; 25–30 min, 65% A; 30–35 min, 65–20% A; and 35–45 min, 20% A. The DAD spectral data was collected from 190 to 400 nm. The injection volume of all the tested samples was 10 μl. Mass data were acquired in negative mode under the following conditions, ion spray voltage −4,500 V, ion source temperature 450°C, curtain gas 10 psi, nebulizer gas 60 psi and auxiliary gas 60 psi.

[3] = system: human liver microsomes (HLMs); assay: In vitro metabolite identification, GAA incubated with HLMs; conditions: for Detected resource 5, HLMs: 100 μM GAA, 1.0 mg protein/ml HLMs, NADPH and UDPGA, 37°C, 1 h
Protocol: as §2, §3

[4] = system: rat liver microsomes (RLMs)
Protocol: as §2, §3

[5] = system: human liver microsomes (HLMs)
Protocol: as §2, §3

CYP3A [6] = assay: Effect of CYP inhibitors on formation of GAA metabolites in HLMs; format: in vitro ADME; conditions: human, human liver microsomes (HLMs), probe GAA (10 μM), ketoconazole 10 μM
Protocol: (§1) GAA (10 μM) was incubated with 0.25 mg/ml RLMs or HLMs in the incubation system as described in Section Formation Kinetics of the Metabolites M2 and M4, in the present or absent of the following CYP enzymes inhibitors, 10 μM α- naphthoflavone (for CYP1A2), 100 μM ticlopidine (for CYP2C19), 10 μM quinidine (for CYP2D), 10 μM ketoconazole (for CYP3A), 100 μM fluconazole (for CYP2C9) and 100 μM diethyldithiocarbamate (for CYP2E1), respectively. The M2 and M4 formation rates in the present and absent of inhibitors were compared. The percentage of inhibition was calculated. Each of the incubations was performed in triplicate.

CYP3A [7] = assay: Effect of CYP inhibitors on formation of GAA metabolites in RLMs; format: in vitro ADME; conditions: rat, rat liver microsomes (RLMs), probe GAA (10 μM), formation of metabolite M2, RLMs 0.25 mg/ml, ketoconazole 10 μM
Protocol: as §1

[8] = system: human liver microsomes (HLMs); conditions: for Vmax of metabolite formation from GAA: HLMs 0.25 mg protein/ml, GAA 1–50 μM, 30 min
Protocol: The formation kinetics of the two main reduction metabolites M2 (GAC2) and M4 (7β,15-dihydroxy-3,11,23-trioxo-lanost-26-oic acid) were determined. The incubations were performed in a medium (100 μl) containing 0.25 mg protein /ml RLMs or HLMs, different concentrations of GAA (1–50 μM), 3.3 mM of MgCl2, 3.0 mM of NADPH and 100 mM of sodium phosphate buffer (pH 7.4). After 10 min of preincubation, GAA at each concentration was incubated with RLMs and HLMs for 5 and 30 min, respectively. The reactions were terminated by adding with 100 μl of ice-cold acetonitrile containing 2 μM GLA used as internal standard (IS). After centrifugation, metabolites in the mixture were analyzed by UFLC-MS/MS detection as described below. The metabolite formation rates vs. GAA concentrations were plotted to obtain the Michaelis-Menten constant (Km) and maximum velocity (Vmax) values of the metabolic reactions. Each of the incubations was performed in triplicate.
The kinetic parameters of GAA metabolism by RLMs or HLMs were calculated by fitting the data to the hyperbolic Michaelis-Menten model: V=Vmax×[S]/Km+[S]
Where Vmax is the maximal velocity of formation, S is the concentration of substrate, Km is the substrate concentration of half maximal velocity, and the intrinsic clearance (CLint) is calculated as Vmax/Km.

[9] = system: rat liver microsomes (RLMs); assay: Formation kinetics of the metabolites M2 and M4 in RLMs; format: in vitro ADME
Protocol: Each of the incubations was performed in triplicate.

HepG2 cells = system: HepG2 cells; design: method as in Yao et al., 2012; conditions: ref Yao et al., 2012; cited from earlier work
EL4 syngeneic mice = system: EL4 syngeneic mice; design: method as in Radwan et al., 2015; conditions: ref Radwan et al., 2015, cited from earlier work

## C[C@H](CC(=O)C[C@@H](C)[C@H]1C[C@H](O)[C@@]2(C)C3=C(C(=O)C[C@]12C)[C@@]1(C)CCC(=O)C(C)(C)[C@@H]1C[C@@H]3O[C@@H]1O[C@H](C(=O)O)[C@@H](O)[C@H](O)[C@H]1O)C(=O)O [Metabolite M28, Ganoderic acid A 7-O-glucuronide]
[1]
  Detected resource 4, RLMs: +
  metabolite found in RLMs incubations: found
[2]
  Detected resource 1, rat bile: +
  Detected resource 2, rat plasma: +
  Detected resource 3, rat urine: +
[3]
  Detected resource 5, HLMs: +
[3]; HLMs incubations
  metabolite detected in HLMs incubations: detected

## CC(CC(=O)CC(C)C1CC(O)C2(C)C3=C(C(=O)C(O)C12C)C1(C)CCC(=O)C(C)(C)C1CC3O)C(=O)O (stereo not shown) [Metabolite M9, 12-hydroxy ganoderic acid A]
[4]
  metabolite found in RLMs incubations: found
[5]
  metabolite detected in HLMs incubations: detected

## CC(CC(=O)CC(C)(O)C1CC(O)C2(C)C3=C(C(=O)CC12C)C1(C)CCC(=O)C(C)(C)C1CC3O)C(=O)O (stereo not shown) [Metabolite M11, 20-hydroxy ganoderic acid A]
[4]
  metabolite found in RLMs incubations: found
[5]
  metabolite detected in HLMs incubations: detected

## C[C@H](CC(=O)C[C@@H](C)[C@H]1C[C@H](O)[C@@]2(C)C3=C(C(=O)C[C@]12C)[C@@]1(C)CC[C@H](O[C@@H]2O[C@H](C(=O)O)[C@@H](O)[C@H](O)[C@H]2O)C(C)(C)[C@@H]1C[C@@H]3O)C(=O)O [Metabolite M25, Ganoderic acid C2 3-O-glucuronide]
[1]
  Detected resource 4, RLMs: +
  metabolite found in RLMs incubations: detected
[2]
  Detected resource 1, rat bile: +

## CC(CC(=O)CC(C)C1CC(O)C2(C)C3=C(C(=O)CC12C)C1(C)CCC(=O)C(C)(CO)C1CC3O)C(=O)O (stereo not shown) [Metabolite M35, 28(29)-hydroxy ganoderic acid A]
[5]
  metabolite detected in HLMs incubations: detected

## CC(=O)N1CCN(c2ccc(OCC3COC(Cn4ccnc4)(c4ccc(Cl)cc4Cl)O3)cc2)CC1 (stereo not shown) [Ketoconazole, ketoconazole]
CYP3A [6]; formation of metabolite M2, HLMs 0.25 mg/ml, read-out: inhibition of the formation of M2 in HLMs
  inhibition at 10 μM: 56%
CYP3A [6]; formation of metabolite M4, HLMs 0.25 mg/ml, read-out: inhibition of the formation of M4 in HLMs
  inhibition at 10 μM: 38.2%
CYP3A [7]
  inhibition at 10 μM: 19.9%

## C[C@H](CC(=O)C[C@@H](C)[C@H]1C[C@H](O)[C@@]2(C)C3=C(C(=O)C[C@]12C)[C@@]1(C)CC[C@H](O)C(C)(C)[C@@H]1C[C@@H]3O)C(=O)O [Metabolite M2, Ganoderic acid C2]
[8]
  Vmax of metabolite formation from GAA: 30.18 pmol/min/mg
[8]; human, pH 7.4
  Clint of metabolite formation from GAA (Vmax/Km): 0.33 µL/min/mg
[8]; in HLMs, ratio M2 vs M4
  Km of M2 higher than that of M4: 15 fold
[8]; ratio HLMs vs RLMs
  Km by HLMs higher than by RLMs: approximately 3 fold
[4]
  relative abundance of metabolite in RLMs incubations: most abundant
[5]
  metabolite detected in HLMs incubations: detected
  relative abundance of metabolite in HLMs incubations: abundant
[9]; RLMs 0.25 mg protein/ml, GAA 1–50 μM, 5 min
  Vmax of metabolite formation from GAA: 185.81 pmol/min/mg
[9]; ratio RLMs vs HLMs
  CLint by RLMs higher than by HLMs: 20 fold
  Vmax by RLMs higher than by HLMs: 6 fold

## C[C@H](CC(=O)C[C@@H](C)[C@H]1C[C@H](O)[C@@]2(C)C3=C(C(=O)C[C@]12C)[C@@]1(C)CC[C@H](O)C(C)(C)[C@@H]1C[C@@H]3O[C@@H]1O[C@H](C(=O)O)[C@@H](O)[C@H](O)[C@H]1O)C(=O)O [Metabolite M26, Ganoderic acid C2 7-O-glucuronide]
[2]
  Detected resource 1, rat bile: +

## CC(CC(=O)C[C@@H](C)[C@H]1CC(O)[C@@]2(C)C3=C(C(O[C@@H]4O[C@H](C(=O)O)[C@@H](O)[C@H](O)[C@H]4O)C[C@]12C)[C@@]1(C)CCC(=O)C(C)(C)[C@@H]1CC3=O)C(=O)O (stereo partly shown) [Metabolite M29, 15-hydroxy-3,7,23-trioxo-lanost-8-en-26-oic acid-11-O-glucuronide]
[2]
  Detected resource 1, rat bile: +
  Detected resource 2, rat plasma: +
  Detected resource 3, rat urine: +

## C[C@H](CC(=O)C[C@@H](C)[C@H]1C[C@H](O)[C@@]2(C)C3=C(C(=O)C[C@]12C)[C@@]1(C)CCC(=O)C(C)(C)[C@@H]1C[C@@H]3O)C(=O)O [Metabolite M0, Ganoderic acid A]
HepG2 cells
  chemosensitivity of HepG2 cells to Cisplatin: enhance chemosensitivity
[1]
  Detected resource 4, RLMs: +
[2]
  Detected resource 1, rat bile: +
  Detected resource 2, rat plasma: +
  Detected resource 3, rat urine: +
[3]
  Detected resource 5, HLMs: +
EL4 syngeneic mice; EL4 syngeneic mice
  tumor metastasis to the liver: decrease tumor metastasis to the liver
EL4 syngeneic mice
  survival of EL4 syngeneic mice: significantly prolong the survival

## C[C@H](CC(=O)C[C@@H](C)[C@H]1C[C@H](O[C@@H]2O[C@H](C(=O)O)[C@@H](O)[C@H](O)[C@H]2O)[C@@]2(C)C3=C(C(=O)C[C@]12C)[C@@]1(C)CC[C@H](O)C(C)(C)[C@@H]1C[C@@H]3O)C(=O)O [Metabolite M27, Ganoderic acid C2 15-O-glucuronide]
[2]
  Detected resource 1, rat bile: +

## CC(CC(=O)C[C@@H](C)[C@H]1C[C@H](O)[C@@]2(C)C3=C(C(=O)C[C@]12C)[C@@]1(C)CCC(=O)C(C)(C)[C@@H]1CC3=O)C(=O)O (stereo partly shown) [Metabolite M7, Ganoderic acid J]
[2]
  Detected resource 1, rat bile: +
  Detected resource 2, rat plasma: +
  Detected resource 3, rat urine: +

## CC(CC(=O)C[C@@H](C)[C@H]1CC(O[C@@H]2O[C@H](C(=O)O)[C@@H](O)[C@H](O)[C@H]2O)[C@@]2(C)C3=C(C(O)C[C@]12C)[C@@]1(C)CCC(=O)C(C)(C)[C@@H]1CC3=O)C(=O)O (stereo partly shown) [Metabolite M31, 11-hydroxy-3,7,23-trioxo-lanost-8-en-26-oic acid-15-O-glucuronide]
[2]
  Detected resource 1, rat bile: +
  Detected resource 3, rat urine: +

## C[C@H](CC(=O)C[C@@H](C)[C@H]1C[C@H](O[C@@H]2O[C@H](C(=O)O)[C@@H](O)[C@H](O)[C@H]2O)[C@@]2(C)C3=C(C(=O)C[C@]12C)[C@@]1(C)CCC(=O)C(C)(C)[C@@H]1C[C@@H]3O)C(=O)O [Metabolite M30, Ganoderic acid A 15-O-glucuronide]
[2]
  Detected resource 1, rat bile: +
  Detected resource 3, rat urine: +

## CC(CC(=O)CC(C)C1CC(O)C2(C)C3=C(C(=O)CC12C)C1(C)CCC(O)C(C)(CO)C1CC3O)C(=O)O (stereo not drawn) [Metabolite M13, 3,7β,15,28(29)-tetrahydroxy-11, 23-dioxo-lanost-8-en-26-oic acid]
[4]
  metabolite found in RLMs incubations: detected

## CC(CC(=O)CC(C)C1CC(O)C2(C)C3=C(C(=O)C(O)C12C)C1(C)CCC(O)C(C)(C)C1CC3O)C(=O)O (stereo not shown) [Metabolite M15, 12-hydroxy ganoderic acid C2]
[4]
  metabolite found in RLMs incubations: detected

## CC(CC(=O)C[C@@H](C)[C@H]1CC(=O)[C@@]2(C)C3=C(C(=O)C[C@]12C)[C@@]1(C)CC[C@H](O)C(C)(C)[C@@H]1C[C@@H]3O)C(=O)O (stereo partly shown) [Metabolite M18, Ganoderic acid B]
[2]
  Detected resource 1, rat bile: +
  Detected resource 2, rat plasma: +

## CC(CC(=O)CC(C)C1CC(O)C2(C)C3C(O)CC4C(C)(C)C(=O)CCC4(C)C3C(=O)CC12C)C(=O)O (stereo not drawn) [Metabolite M4, 7β,15-dihydroxy-3,11,23-trioxo-lanost-26-oic acid]
[8]
  Vmax of metabolite formation from GAA: 29.70 pmol/min/mg
[8]; human, pH 7.4
  CLint of M4 formation higher than that of M2: 15 fold
  Clint of metabolite formation from GAA (Vmax/Km): 4.85 µL/min/mg
[4]
  metabolite found in RLMs incubations: undetected
[5]
  metabolite detected in HLMs incubations: detected
  relative abundance of metabolite in HLMs incubations: abundant
